According to patent publication US5674979A, “Agent for inhibiting symmetrical proteins, in particular enzymes” (priority 1989, dated 1997):
Where two headings read alike, the source gives them in different places.

Assays:
HIV-1 [1] = test system: HIV-1
Description: Infectivity tests were carried out as follows: an HIV-1 suspension containing 10^2 infectious units was absorbed on to 5×10^6 H9 cells in a volume of 1 ml for 2 hours at 4° C. After this time, 9 ml of tissue culture medium with the required inhibitor concentration was added. The medium was exchanged with fresh medium plus inhibitor daily. Two control cultures were also prepared, one without inhibitor to determine the normal virus replication rate, the other containing inhibitor but no virus, to determine whether the substances were cytotoxic for H9 cells. […] The amount of virus antigen produced by the infected cells was measured daily using Elisa for eight days, indicating the amount of HIV-1 antigen in the tissue culture medium. After this, the cells were pelleted, washed in medium without inhibitor, and further incubated in inhibitor-less medium. The antigen production was measured on days 9 and 12 (ie 1 and 3 days after removal of the inhibitor). Virus production was also measured on days 7, 8, 9, and 12 by determining the amount of reverse transcriptase in the supernatant of the cell medium.

HIV-1 [2] = settings: H9 cells
Description: Compounds (a), (b), (c), (d) were tested in the molarity range from 0.1 μM to 1000 μM. Infectivity tests were carried out as follows: an HIV-1 suspension containing 10^2 infectious units was absorbed on to 5×10^6 H9 cells in a volume of 1 ml for 2 hours at 4° C. After this time, 9 ml of tissue culture medium with the required inhibitor concentration was added. The medium was exchanged with fresh medium plus inhibitor daily. Two control cultures were also prepared, one without inhibitor to determine the normal virus replication rate, the other containing inhibitor but no virus, to determine whether the substances were cytotoxic for H9 cells. […] The amount of virus antigen produced by the infected cells was measured daily using Elisa for eight days, indicating the amount of HIV-1 antigen in the tissue culture medium. After this, the cells were pelleted, washed in medium without inhibitor, and further incubated in inhibitor-less medium. The antigen production was measured on days 9 and 12 (ie 1 and […] after removal of the inhibitor). Virus production was also measured on days 7, 8, 9, and 12 by determining the amount of reverse transcriptase in the supernatant of the cell medium.

[3] = 0,1 μM, day 9 post infection, no inhibitor (after removal)
[4] = 0,1 μM, day 12 post infection, no inhibitor (after removal)
[5] = 1 μM, day 9 post infection, no inhibitor (after removal)
[6] = 1 μM, day 12 post infection, no inhibitor (after removal)
[7] = 10 μM, day 9 post infection, no inhibitor (after removal)
[8] = 10 μM, day 12 post infection, no inhibitor (after removal)
[9] = 100 μM, day 9 post infection, no inhibitor (after removal)
[10] = 100 μM, day 12 post infection, no inhibitor (after removal)
[11] = 1000 μM, day 9 post infection, no inhibitor (after removal)
[12] = 1000 μM, day 12 post infection, no inhibitor (after removal)

## CC(C)C[C@H](NC(=O)OC(C)(C)C)C(=O)NCC(O)CC(=O)O (stereo partly drawn) [B, t-BOC-L-Leu-NH--CH2 --CHOH--CH2 --COOH]
HIV-1 [1]; 0,1 μM, day 7 post infection
  Reverse Transkriptase Determination: 2099 epm/ml
HIV-1 [1]; 0,1 μM, day 8 post infection
  Reverse Transkriptase Determination: 3091 epm/ml
HIV-1 [1]; [3]
  Reverse Transkriptase Determination: 6180 epm/ml
HIV-1 [1]; [4]
  Reverse Transkriptase Determination: 106830 epm/ml
HIV-1 [1]; 1 μM, day 7 post infection
  Reverse Transkriptase Determination: 6105 epm/ml
HIV-1 [1]; 1 μM, day 8 post infection
  Reverse Transkriptase Determination: 3006 epm/ml
HIV-1 [1]; [5]
  Reverse Transkriptase Determination: 8474 epm/ml
HIV-1 [1]; [6]
  Reverse Transkriptase Determination: 92020 epm/ml
HIV-1 [1]; 10 μM, day 7 post infection
  Reverse Transkriptase Determination: 4614 epm/ml
HIV-1 [1]; 10 μM, day 8 post infection
  Reverse Transkriptase Determination: 4188 epm/ml
HIV-1 [1]; [7]
  Reverse Transkriptase Determination: 7187 epm/ml
HIV-1 [1]; [8]
  Reverse Transkriptase Determination: 164920 epm/ml
HIV-1 [1]; 100 μM, day 7 post infection
  Reverse Transkriptase Determination: 4033 epm/ml
HIV-1 [1]; 100 μM, day 8 post infection
  Reverse Transkriptase Determination: 4418 epm/ml
HIV-1 [1]; [9]
  Reverse Transkriptase Determination: 6575 epm/ml
HIV-1 [1]; [10]
  Reverse Transkriptase Determination: 125290 epm/ml
HIV-1 [1]; 1000 μM, day 7 post infection
  Reverse Transkriptase Determination: 3441 epm/ml
HIV-1 [1]; 1000 μM, day 8 post infection
  Reverse Transkriptase Determination: 3159 epm/ml
HIV-1 [1]; [11]
  Reverse Transkriptase Determination: 5503 epm/ml
HIV-1 [1]; [12]
  Reverse Transkriptase Determination: 149020 epm/ml
HIV-1 [2]; 0,1 μM, day 1 post infection
  HIV-1 antigen production as measured in antigen capture ELISA: 0,061 o. D.
HIV-1 [2]; 0,1 μM, day 2 post infection
  HIV-1 antigen production as measured in antigen capture ELISA: 0,063 o. D.
HIV-1 [2]; 0,1 μM, day 3 post infection
  HIV-1 antigen production as measured in antigen capture ELISA: 0,039 o. D.
HIV-1 [2]; 0,1 μM, day 4 post infection
  HIV-1 antigen production as measured in antigen capture ELISA: 0,063 o. D.
HIV-1 [2]; 0,1 μM, day 5 post infection
  HIV-1 antigen production as measured in antigen capture ELISA: 0,055 o. D.
HIV-1 [2]; 0,1 μM, day 6 post infection
  HIV-1 antigen production as measured in antigen capture ELISA: 0,149 o. D.
HIV-1 [2]; 0,1 μM, day 7 post infection
  HIV-1 antigen production as measured in antigen capture ELISA: 0,389 o. D.
HIV-1 [2]; 0,1 μM, day 8 post infection
  HIV-1 antigen production as measured in antigen capture ELISA: 0,232 o. D.
HIV-1 [2]; [3]
  HIV-1 antigen production as measured in antigen capture ELISA: 0,700 o. D.
HIV-1 [2]; [4]
  HIV-1 antigen production as measured in antigen capture ELISA: 1,047 o. D.
HIV-1 [2]; 1 μM, day 1 post infection
  HIV-1 antigen production as measured in antigen capture ELISA: 0,063 o. D.
HIV-1 [2]; 1 μM, day 2 post infection
  HIV-1 antigen production as measured in antigen capture ELISA: 0,060 o. D.
HIV-1 [2]; 1 μM, day 3 post infection
  HIV-1 antigen production as measured in antigen capture ELISA: 0,061 o. D.
HIV-1 [2]; 1 μM, day 4 post infection
  HIV-1 antigen production as measured in antigen capture ELISA: 0,050 o. D.
HIV-1 [2]; 1 μM, day 5 post infection
  HIV-1 antigen production as measured in antigen capture ELISA: 0,052 o. D.
HIV-1 [2]; 1 μM, day 6 post infection
  HIV-1 antigen production as measured in antigen capture ELISA: 0,105 o. D.
HIV-1 [2]; 1 μM, day 7 post infection
  HIV-1 antigen production as measured in antigen capture ELISA: 0,186 o. D.
HIV-1 [2]; 1 μM, day 8 post infection
  HIV-1 antigen production as measured in antigen capture ELISA: 0,237 o. D.
HIV-1 [2]; [5]
  HIV-1 antigen production as measured in antigen capture ELISA: 0,745 o. D.
HIV-1 [2]; [6]
  HIV-1 antigen production as measured in antigen capture ELISA: 0,970 o. D.
HIV-1 [2]; 10 μM, day 1 post infection
  HIV-1 antigen production as measured in antigen capture ELISA: 0,063 o. D.
HIV-1 [2]; 10 μM, day 2 post infection
  HIV-1 antigen production as measured in antigen capture ELISA: 0,060 o. D.
HIV-1 [2]; 10 μM, day 3 post infection
  HIV-1 antigen production as measured in antigen capture ELISA: 0,059 o. D.
HIV-1 [2]; 10 μM, day 4 post infection
  HIV-1 antigen production as measured in antigen capture ELISA: 0,047 o. D.
HIV-1 [2]; 10 μM, day 5 post infection
  HIV-1 antigen production as measured in antigen capture ELISA: 0,055 o. D.
HIV-1 [2]; 10 μM, day 6 post infection
  HIV-1 antigen production as measured in antigen capture ELISA: 0,087 o. D.
HIV-1 [2]; 10 μM, day 7 post infection
  HIV-1 antigen production as measured in antigen capture ELISA: 0,303 o. D.
HIV-1 [2]; 10 μM, day 8 post infection
  HIV-1 antigen production as measured in antigen capture ELISA: 0,342 o. D.
HIV-1 [2]; [7]
  HIV-1 antigen production as measured in antigen capture ELISA: 0,645 o. D.
HIV-1 [2]; [8]
  HIV-1 antigen production as measured in antigen capture ELISA: 1,038 o. D.
HIV-1 [2]; 100 μM, day 1 post infection
  HIV-1 antigen production as measured in antigen capture ELISA: 0,068 o. D.
HIV-1 [2]; 100 μM, day 2 post infection
  HIV-1 antigen production as measured in antigen capture ELISA: 0,070 o. D.
HIV-1 [2]; 100 μM, day 3 post infection
  HIV-1 antigen production as measured in antigen capture ELISA: 0,063 o. D.
HIV-1 [2]; 100 μM, day 4 post infection
  HIV-1 antigen production as measured in antigen capture ELISA: 0,052 o. D.
HIV-1 [2]; 100 μM, day 5 post infection
  HIV-1 antigen production as measured in antigen capture ELISA: 0,052 o. D.
HIV-1 [2]; 100 μM, day 6 post infection
  HIV-1 antigen production as measured in antigen capture ELISA: 0,099 o. D.
HIV-1 [2]; 100 μM, day 7 post infection
  HIV-1 antigen production as measured in antigen capture ELISA: 0,359 o. D.
HIV-1 [2]; 100 μM, day 8 post infection
  HIV-1 antigen production as measured in antigen capture ELISA: 0,260 o. D.
HIV-1 [2]; [9]
  HIV-1 antigen production as measured in antigen capture ELISA: 0,890 o. D.
HIV-1 [2]; [10]
  HIV-1 antigen production as measured in antigen capture ELISA: 0,960 o. D.
HIV-1 [2]; 1000 μM, day 1 post infection
  HIV-1 antigen production as measured in antigen capture ELISA: 0,076 o. D.
HIV-1 [2]; 1000 μM, day 2 post infection
  HIV-1 antigen production as measured in antigen capture ELISA: 0,068 o. D.
HIV-1 [2]; 1000 μM, day 3 post infection
  HIV-1 antigen production as measured in antigen capture ELISA: 0,050 o. D.
HIV-1 [2]; 1000 μM, day 4 post infection
  HIV-1 antigen production as measured in antigen capture ELISA: 0,050 o. D.
HIV-1 [2]; 1000 μM, day 5 post infection
  HIV-1 antigen production as measured in antigen capture ELISA: 0,063 o. D.
HIV-1 [2]; 1000 μM, day 6 post infection
  HIV-1 antigen production as measured in antigen capture ELISA: 0,075 o. D.
HIV-1 [2]; 1000 μM, day 7 post infection
  HIV-1 antigen production as measured in antigen capture ELISA: 0,279 o. D.
HIV-1 [2]; 1000 μM, day 8 post infection
  HIV-1 antigen production as measured in antigen capture ELISA: 0,577 o. D.
HIV-1 [2]; [11]
  HIV-1 antigen production as measured in antigen capture ELISA: 0,811 o. D.
HIV-1 [2]; [12]
  HIV-1 antigen production as measured in antigen capture ELISA: 1,050 o. D.
